The source of these data is paper PMC12261228 (ACS Pharmacology & Translational Science, 2025).

Where two headings read alike, the source gives them in different places. Some results are limits rather than exact numbers.

The subject of series [1] is CCRF-CEM. Briefly: MTS cytotoxicity assay, 72 h. The format is cell-based. Background: Tetrazolium assays rely on reduction of a dye to a coloured formazan, in cell work by metabolically active cells.
Series [2] has as its system K562. Briefly: MTS cytotoxicity assay, 72 h. The format is cell-based. The settings on record: Homo sapiens, K562, 72 h, read-out: IC50 K562.
The test system of series [3] is HCT116. Briefly: MTS cytotoxicity assay, 72 h. The conditions noted are these: Homo sapiens, HCT-116, 72 h, read-out: IC50 HCT116. It counts as cell-based.
The test system of series [4] is HCT116p53–/–. Put plainly: MTS cytotoxicity assay, 72 h. It counts as cell-based. The conditions noted are these: read-out: IC50 HCT116p53–/–.
Series [5] relates to U2OS. Briefly: MTS cytotoxicity assay, 72 h. The conditions noted are these: Homo sapiens, U2OS, 72 h. It counts as cell-based, human.
In series [6] the test system is MRC-5. Put plainly: MTS cytotoxicity assay, 72 h. The format is cell-based. The conditions noted are these: Homo sapiens, MRC5, 72 h, read-out: IC50 MRC-5.
The test system of series [7] is BJ. Briefly: MTS cytotoxicity assay, 72 h. It counts as cell-based. The conditions noted are these: Homo sapiens, read-out: IC50 BJ.
Series [8] deals with A549. Briefly: MTS cytotoxicity assay, 72 h. The format is cell-based. The conditions noted are these: Homo sapiens, Fig. S22. The procedure: Cell suspensions were prepared and diluted according to the particular cell type and the expected target cell density (500 – 4,000 cells/well). The cells (30 μL/well) were seeded to 384-well clear Corning plates by MultiDrop Combi (Thermo Fisher Scientific, USA). After 24 h the cells were treated with tested compounds as well as with vehicle (DMSO) and high controls (2.67 μM of Actinomycin D and 100 μM Mitomycin C) using contact-free acoustic liquid handler ECHO 555 (Labcyte, USA). Compounds were analyzed at a concentration range from 0.012 μM to 50 μM. Treated cells were incubated at 37 °C in a 5% CO2 atmosphere of a humidified incubator for 72 h. At the end of the incubation period, aliquots of the MTS (Promega) solution prepared according to manufacturer's instructions were added to cells (https://worldwide.promega.com/resources/protocols/technical-bulletins/0/celltiter-96-aqueous-nonradioactive-cell-proliferation-assay-protocol/). After 1 – 4 h of the incubation period, the optical density (OD) at 490 nm was measured on a multimode plate reader EnVision (PerkinElmer, USA). The experiments were performed in technical duplicates and at least three biological replicates. […] The assay quality was monitored by determining the Z′-factor for each 384-well plate. The resistance index (RI), representing the reduction in compound activity on resistant cell lines, was calculated as RI = (IC50 of resistant cell lines, CEM-DNR, K562-TAX)/(IC50 of nonresistant counterparts, CCRF-CEM, K562). Similarly, the selectivity index (SI), indicating preferential cytotoxicity toward tumor cell lines, was calculated as SI = (mean IC50 of nontumor cell lines, BJ and MRC5)/(mean IC50 of cancer cell lines without resistant variants, CCRF-CEM, K562, HCT116, HCT116p53–/–, U2OS).

For series [9], the system named is CEM-DNR. Put plainly: MTS cytotoxicity assay, 72 h. It counts as cell-based. The conditions noted are these: Homo sapiens, read-out: IC50 CEM-DNR.
In series [10] the test system is K562-TAX. Briefly: MTS cytotoxicity assay, 72 h. It counts as cell-based. The settings on record: read-out: IC50 K562-TAX.
Series [11] has as its system HUVEC. Briefly: MTS cytotoxicity assay, 72 h. It counts as cell-based. The settings on record: Homo sapiens, 3-day incubation, mean ± SD.
Series [12] relates to panel of cell lines.
The test system of series [13] is CCRF-CEM lymphoblasts. Put plainly: FACS analysis of cell cycle, apoptosis, mitosis and polyploidy. The conditions noted are these: for Mitosis: phospho-Histone (Ser10); for Apoptosis: sub-G0/G1 DNA content, % of positive cells.
[14] abbreviates: Homo sapiens, CCRF-CEM, 72 h, MTS assay, 3-day incubation, mean ± SD of 3 experiments, read-out: IC50 CCRF-CEM.
[15] abbreviates: MTS assay, 3-day incubation, mean ± SD.
The mark [16] stands for this setting: MTS assay, 3-day incubation, mean ± SD, read-out: IC50 U2OS.
[17] abbreviates: normal fibroblasts, MTS assay, 3-day incubation, mean ± SD.
The mark [18] stands for this setting: daunorubicin-resistant, MTS assay, 3-day incubation, mean ± SD.
The mark [19] stands for this setting: paclitaxel-resistant, MTS assay, 3-day incubation, mean ± SD.
Where [20] appears, read: Homo sapiens, CCRF-CEM, 72 h, read-out: IC50 CCRF-CEM, MTS assay, 3-day incubation, mean ± SD of 3 experiments.
Setting [21] is: read-out: IC50 U2OS, MTS assay, 3-day incubation, mean ± SD.

For `CC1=CC(C)=[N+]2C1=C(CCC(=O)O)c1c(C)cc(C)n1[B-]2(F)F` [B1], the IC50 in [1] (setting [14]), in series [2] (setting [15]), in series [3] (setting [15]), in series [4] (setting [15]), in series [5] (setting [16]) and in [6] (setting [17]) was greater than 50 µM throughout. Moreover, the IC50 in series [7] (setting [17]) and in series [8] was greater than 50 µM each time.

As to `CC1=CC(C)=[N+]2C1=C(CCCCCCCCCCC(=O)O)c1c(C)cc(C)n1[B-]2(F)F` [B2], the IC50 in [1] (setting [14]), in [2] (setting [15]), in [3] (setting [15]), in [4] (setting [15]), in series [5] (setting [16]) and in [6] (setting [17]) was greater than 50 µM in each case. The IC50 in series [7] (setting [17]) and in series [8] was greater than 50 µM each time.

Take `CC1=CC(C)=[N+]2C1=C(CCCCBr)c1c(C)cc(C)n1[B-]2(F)F` [B3, difluoro-1,3,5,7-tetramethyl-4-bora-3a,4a-diaza-s-indacene-8-yl)butyl bromide]: the IC50 in series [1] (setting [14]), in series [9] (setting [18]), in [2] (setting [15]), in series [10] (setting [19]), in series [3] (setting [15]) and in [4] (setting [15]) was greater than 50 µM in each case. Also, the IC50 in series [5] (setting [16]), in [6] (setting [17]), in series [7] (setting [17]) and in series [8] was greater than 50 µM in each case.

Consider `CC1=CC(C)=[N+]2C1=C(CCCCN)c1c(C)cc(C)n1[B-]2(F)F` [B4], for which the IC50 is 32.9 µM in [1] (setting [14]); greater than 50 µM in [9] (setting [18]); greater than 50 µM in series [2] (setting [15]); greater than 50 µM in series [10] (setting [19]); greater than 50 µM in series [3] (setting [15]); greater than 50 µM in series [4] (setting [15]). Further, the IC50 in series [5] (setting [16]), in [6] (setting [17]), in [7] (setting [17]) and in series [8] was greater than 50 µM in each case.

In the case of `CNCCCCC1=C2C(C)=CC(C)=[N+]2[B-](F)(F)n2c(C)cc(C)c21` [B5], the IC50 in series [1] (setting [14]) was 27.8 µM; in series [9] (setting [18]) it was 36.3 µM; in series [2] (setting [15]), greater than 50 µM; in series [10] (setting [19]), 35.8 µM; in series [3] (setting [15]), greater than 50 µM; in [4] (setting [15]), greater than 50 µM. The IC50 in series [5] (setting [16]), in series [6] (setting [17]), in [7] (setting [17]) and in series [8] was greater than 50 µM in each case.

In the case of `CC1=CC(C)=[N+]2C1=C(CCCCN(C)C)c1c(C)cc(C)n1[B-]2(F)F` [B6], the IC50 in series [1] (setting [14]), in [9] (setting [18]), in series [2] (setting [15]), in series [10] (setting [19]), in series [3] (setting [15]) and in series [4] (setting [15]) was greater than 50 µM in each case. Besides, the IC50 in series [5] (setting [16]), in series [6] (setting [17]), in [7] (setting [17]) and in series [8] was greater than 50 µM throughout.

For the compound `COc1cc(C2=C3C(C)=CC(C)=[N+]3[B-](F)(F)n3c(C)cc(C)c32)ccc1O` [B7], the IC50 was greater than 50 µM in series [1] (setting [14]); 39.9 µM in [9] (setting [18]); greater than 50 µM in series [2] (setting [15]); greater than 50 µM in series [10] (setting [19]); greater than 50 µM in [3] (setting [15]); greater than 50 µM in [4] (setting [15]). The IC50 in series [5] (setting [16]), in [6] (setting [17]), in [7] (setting [17]) and in series [8] was greater than 50 µM throughout.

Turning to `C#CCOc1ccc(C2=C3C(C)=CC(C)=[N+]3[B-](F)(F)n3c(C)cc(C)c32)cc1OC` [B8], the IC50 in series [1] (setting [14]), in series [9] (setting [18]), in series [2] (setting [15]), in series [10] (setting [19]), in series [3] (setting [15]) and in series [4] (setting [15]) was greater than 50 µM in each case. Moreover, the IC50 in series [5] (setting [16]), in [6] (setting [17]), in series [7] (setting [17]) and in series [8] was greater than 50 µM throughout.

Consider `C#CCCCC1=C2C(C)=CC(C)=[N+]2[B-](F)(F)n2c(C)cc(C)c21` [B9], for which the IC50 in [1] (setting [14]), in series [9] (setting [18]), in series [2] (setting [15]), in series [10] (setting [19]), in series [3] (setting [15]) and in [4] (setting [15]) was greater than 50 µM each time. Moreover, the IC50 in series [5] (setting [16]), in series [6] (setting [17]), in [7] (setting [17]) and in series [8] was greater than 50 µM throughout.

`COc1cc(C2=C3C(C)=CC(C)=[N+]3[B-](F)(F)n3c(C)cc(C)c32)ccc1OCc1cn([C@H]2CCc3cc(OC)c(OC)c(OC)c3-c3ccc(OC)c(=O)cc32)n[n+]1C` [CB9]: the IC50 in series [1] (setting [20]) worked out at 4.81 ± 0.641 µM; in [9] it was 6.49 ± 0.639 µM; in [2], 7.69 ± 0.45 µM; in [10], 5.78 ± 0.561 µM; in series [3] it was 8.27 ± 1.43 µM; in series [4], 8.56 ± 0.365 µM. Further, the IC50 was greater than 50 µM in series [5] (setting [21]), greater than 50 µM in [6], greater than 50 µM in series [7] and 40.1 ± 2.93 µM in series [11]. Besides, the “RI (resistance index)” value in series [12] stood at 0.98. The “SI (selectivity index)” value in series [12] was greater than 3.15. Further, the G0/G1 in series [13] (1×IC50, 24 h) worked out at 12.83%; in series [13] (5×IC50, 24 h), 19.56%. Besides, the G2/M worked out at 60.07% in series [13] (1×IC50, 24 h) and 48.91% in [13] (5×IC50, 24 h). Moreover, the Polyploid cells in [13] (1×IC50, 24 h) amounted to 29.32%; in [13] (5×IC50, 24 h) it was 26.30%. Moreover, the S worked out at 27.11% in series [13] (1×IC50, 24 h) and 31.53% in series [13] (5×IC50, 24 h). Besides, the Mitosis in [13] (1×IC50, 24 h) is 32.84%; in series [13] (5×IC50, 24 h), 31.00%. Further, the Apoptosis was determined as 8.93% in series [13] (1×IC50, 24 h) and 14.27% in [13] (5×IC50, 24 h).

As to `COc1cc2c(c(OC)c1OC)-c1ccc(NCCCCC3=C4C(C)=CC(C)=[N+]4[B-](F)(F)n4c(C)cc(C)c43)c(=O)cc1[C@@H](NC(C)=O)CC2` [CB10], the IC50 in series [1] (setting [20]) was 7.13 µM; in [1] (read-out: IC50 CCRF-CEM, MTS assay, 3-day incubation, mean ± SD of 3 experiments) it was 7.11 ± 0.651 µM; in series [9] it was 11.1 ± 0.959 µM; in series [2], 10.8 ± 0.431 µM; in series [10], 14.8 ± 2.94 µM; in series [3] it was 35.8 ± 5.91 µM. In addition, the IC50 in [4] is greater than 50 µM; in series [5] (setting [21]), greater than 50 µM; in [6], greater than 50 µM; in series [7], greater than 50 µM; in series [11], 32.3 ± 0.42 µM. The “RI (resistance index)” value in series [12] was found to be 1.45. The “SI (selectivity index)” value in series [12] is recorded as greater than 1.63. For the same compound, the “cytotoxic activity across the cell line panel (in words)” value in series [12] is recorded as “significantly lower”. For the same compound, the G0/G1 in series [13] (1×IC50, 24 h) is recorded as 34.04%; in series [13] (5×IC50, 24 h), 8.21%. In addition, the G2/M in [13] (1×IC50, 24 h) turned out to be 26.65%; in series [13] (5×IC50, 24 h), 62.62%. Besides, the Polyploid cells is 12.43% in [13] (1×IC50, 24 h) and 25.51% in [13] (5×IC50, 24 h). In addition, the S in series [13] (1×IC50, 24 h) is 39.32%; in [13] (5×IC50, 24 h), 29.17%. Moreover, the Mitosis in series [13] (1×IC50, 24 h) came out at 2.86%; in series [13] (5×IC50, 24 h) it was 36.02%. The Apoptosis in series [13] (1×IC50, 24 h) was determined as 3.87%; in series [13] (5×IC50, 24 h), 11.26%.
